From article PMC12207533, “Structure-guided design of a methyltransferase-like 3 (METTL3) proteolysis targeting chimera (PROTAC) incorporating an indole–nicotinamide chemotype” (RSC Medicinal Chemistry, 2025) come the findings set out here.

Test [1] concerns the target T1, METTL3 (Homo sapiens, UniProt Q86U44).
T1 construct: endogenous in cells; host or cells: MOLM-13
In words: Immunoblotting of METTL3 protein levels in MOLM-13 cells. The class given is cell-based. Here is the method: (§1) MOLM-13 were seeded in 12-well cell culture plates at a density of 1 × 10^6 cells per mL and treated with DMSO (final: 0.1%) or different concentrations of PROTAC degraders in DMSO at the indicated times. Treatments were conducted in biological triplicate with varying passages of MOLM-13 cells. The cells were harvested by centrifugation at 500g for 5 min and washed with PBS. The cells were lysed with RIPA lysis buffer with the addition of protease inhibitor (1× cOMPLETE), and insoluble cellular parts were separated by centrifugation (12 000g for 10 min), subsequently, the supernatant was boiled with 1× Laemmli sample buffer (Carl Roth) for 5 min at 95 °C. Proteins were separated by SDS–PAGE on 4–20% Criterion™ TGX™ Precast Protein Gels (Bio-Rad) and transferred to Amersham™ Protean® 0.45 μm nitrocellulose membrane (Cytiva) using semi-dry transfer (25 V, 1 A, Towbin buffer). The membrane was blocked with 5% milk (Carl Roth) in TBST buffer and incubated with the following primary antibodies: Anti-METTL3 (1 : 1000, Abcam, ab195352), anti-METTL14 (1 : 1000, Abcam, ab220030), anti-Bcl2 (1 : 1000, Cell Signaling Technology [CST], EPR16891), anti-Mcl-1 (1 : 1000, CST, 5453 T), anti-Bcl-XL (1 : 1000, CST, 2764 T), anti-vinculin (1 : 1000, CST, 13901) or anti-GAPDH (1 : 5000, CST, D17C4) overnight at 4 °C. Subsequently, the membrane was incubated for 1 h at RT with secondary antibodies: anti-rabbit (1 : 2000, VWR, NA934) or anti-mouse (1 : 2000, VWR, 102646-160). The protein bands were detected via chemiluminescence using Pierce™ ECL western blotting substrate and a Fusion FX imaging system (Vilber). The ImageLab software (Bio-Rad) was used for band quantification.

In test [2] the test system is METTL14. Description: Immunoblotting of METTL14 protein levels in MOLM-13 cells. The class given is cell-based, human. Here is the method: as §1, with “The membrane was blocked with 5% milk (Carl Roth) in TBST buffer and incubated with the following primary antibodies: Anti-METTL3 (1 : 1000, Abcam, ab195352), anti-METTL14 (1 : 1000, Abcam, ab220030), anti-Bcl2 (1 : 1000, Cell Signaling Technology [CST], EPR16891), anti-Mcl-1 (1 : 1000, CST, 5453 T), anti-Bcl-XL (1 : 1000, CST, 2764 T), anti-vinculin (1 : 1000, CST, 13901) or anti-GAPDH (1 : 5000, CST, D17C4) overnight at 4 °C. Subsequently, the membrane was incubated for 1 h at RT with secondary antibodies: anti-rabbit (1 : 2000, VWR, NA934) or anti-mouse (1 : 2000, VWR, 102646-160).” left out
Background: A western blot detects proteins with antibodies after separation by electrophoresis.

The test system of test [3] is Bcl-2. Description: Immunoblotting of Bcl-2 protein levels in MOLM-13 cells. The note with it: 2 μM, time course. The format is cell-based, human. Here is the method:
as §1, with “The membrane was blocked with 5% milk (Carl Roth) in TBST buffer and incubated with the following primary antibodies: Anti-METTL3 (1 : 1000, Abcam, ab195352), anti-METTL14 (1 : 1000, Abcam, ab220030), anti-Bcl2 (1 : 1000, Cell Signaling Technology [CST], EPR16891), anti-Mcl-1 (1 : 1000, CST, 5453 T), anti-Bcl-XL (1 : 1000, CST, 2764 T), anti-vinculin (1 : 1000, CST, 13901) or anti-GAPDH (1 : 5000, CST, D17C4) overnight at 4 °C. Subsequently, the membrane was incubated for 1 h at RT with secondary antibodies: anti-rabbit (1 : 2000, VWR, NA934) or anti-mouse (1 : 2000, VWR, 102646-160).” left out

Test [4] concerns Mcl-1. Description: Immunoblotting of Mcl-1 protein levels in MOLM-13 cells. The format is cell-based, human. The note with it: 2 μM, time course. Here is the method:
as §1, with “The membrane was blocked with 5% milk (Carl Roth) in TBST buffer and incubated with the following primary antibodies: Anti-METTL3 (1 : 1000, Abcam, ab195352), anti-METTL14 (1 : 1000, Abcam, ab220030), anti-Bcl2 (1 : 1000, Cell Signaling Technology [CST], EPR16891), anti-Mcl-1 (1 : 1000, CST, 5453 T), anti-Bcl-XL (1 : 1000, CST, 2764 T), anti-vinculin (1 : 1000, CST, 13901) or anti-GAPDH (1 : 5000, CST, D17C4) overnight at 4 °C. Subsequently, the membrane was incubated for 1 h at RT with secondary antibodies: anti-rabbit (1 : 2000, VWR, NA934) or anti-mouse (1 : 2000, VWR, 102646-160).” left out

Test [5] has as its system Bcl-XL. Description: Immunoblotting of Bcl-XL protein levels in MOLM-13 cells. The class given is cell-based, human. The note with it: 2 μM, time course. The protocol: as §1, with “The membrane was blocked with 5% milk (Carl Roth) in TBST buffer and incubated with the following primary antibodies: Anti-METTL3 (1 : 1000, Abcam, ab195352), anti-METTL14 (1 : 1000, Abcam, ab220030), anti-Bcl2 (1 : 1000, Cell Signaling Technology [CST], EPR16891), anti-Mcl-1 (1 : 1000, CST, 5453 T), anti-Bcl-XL (1 : 1000, CST, 2764 T), anti-vinculin (1 : 1000, CST, 13901) or anti-GAPDH (1 : 5000, CST, D17C4) overnight at 4 °C. Subsequently, the membrane was incubated for 1 h at RT with secondary antibodies: anti-rabbit (1 : 2000, VWR, NA934) or anti-mouse (1 : 2000, VWR, 102646-160).” left out

Test [6] relates to MOLM-13 cells. In words: Cell viability assay (CellTiter Glo 2.0). The note with it: Homo sapiens, MOLM-13, 72 h; read-out: IC50 (cell viability inhibition). The class given is cell-based, human. Here is the method: (§2) To determine cell viability, MOLM-13 cells were treated with the indicated compounds in a 1 : 1 serial dilution, with pure DMSO (final: 0.1%) as the negative control. Briefly, 1000 cells were seeded in black Greiner half-area 96-well plates and incubated for 72 h with inhibitors from DMSO stocks under standard cultivation conditions. Then, Promega CellTiter Glo 2.0 reagent was added to each well according to the manufacturer's protocols, and luminescence was measured using a Tecan Spark 10 M. Experiments were conducted in technical triplicate. Data was normalized to the DMSO control and analyzed with GraphPad Prism 8.0.1 to determine EC50 values. Synergistic effects of venetoclax and AF151 on cell MOLM-13 viability were conducted accordingly, with dilution series of both compounds analyzed using the SynergyFinder+ webtoolkit.[57]

In test [7] the test system is METTL3 mRNA. In words: RT-qPCR of METTL3 mRNA expression. The class given is cell-based, human. The following applies: MOLM-13, AF151 2 μM or STM2457 10 μM, 24 h and 48 h. Here is the method:
(§3) To determine mRNA expression levels of METTL3 and METTL14, MOLM-13 cells were treated in triplicate with compound 41 (AF151, 2 μM), STM2457 (10 μM), and DMSO for 24 resp. 48 h. Afterward, total RNA was extracted using the TRIzol™ reagent (Thermo Fisher Scientific) and purified with the Monarch® Spin RNA Cleanup Kit (New England Biolabs). RT-qPCR was conducted using the two-step GoTaq® RT-qPCR system (Promega) following the manufacturer's protocol. The data were normalized to the DMSO control and GAPDH housekeeping gene (ΔΔCt) using GraphPad Prism 8.0.1.

For test [8], the system named is METTL14 mRNA. Description: RT-qPCR of METTL14 mRNA expression. The class given is cell-based, human. The following applies: MOLM-13, AF151 2 μM or STM2457 10 μM, 24 h and 48 h. The protocol:
as §3
A general note: Quantitative PCR measures a nucleic acid by following its amplification.

In test [9] the test system is m^6A levels in MOLM-13 mRNA. Description: RNA m^6A quantification (colorimetric kit). The format is cell-based, human. The note with it: MOLM-13, AF151 2 μM vs STM2457 10 μM, 24 and 48 h. Here is the method: Quantification of m^6A levels upon compound treatment was conducted in analogy to the study introducing the WD6305 PROTAC.[31] MOLM-13 cells were treated with AF151 (2 μM), STM2457 (10 μM), and DMSO in triplicate for 24 and 48 h. Total RNA was isolated as specified above. PolyA mRNA was then isolated using the PolyATtract® mRNA Isolation System (Promega). m^6A levels were quantified using a colorimetric m^6A RNA methylation Assay Kit (Abcam) as specified in the manufacturer's protocol.

For test [10], the system named is MOLM-13 cells. In words: Real-time annexin V apoptosis assay. The class given is cell-based, human. The note with it: MOLM-13, dose-dependent, monitored over 48 h. The protocol: MOLM-13 cells were treated with AF151 at the indicated concentrations for 48 h, with DMSO (final: 0.1%) as the negative control. Apoptosis of technical triplicate samples was detected in real-time using the RealTime-Glo™ annexin V apoptosis assay kit (Promega), following the manufacturer's protocol. Data were plotted using GraphPad Prism 8.0.1.

The test system of test [11] is MOLM-13 cells. Description: Synergy analysis (ZIP, SynergyFinder+) of AF151 and venetoclax on cell viability. The format is cell-based, human. The following applies: co-treatment with venetoclax, 72 h. Here is the method:
as §2

T1 sequence (Q86U44 whole entry): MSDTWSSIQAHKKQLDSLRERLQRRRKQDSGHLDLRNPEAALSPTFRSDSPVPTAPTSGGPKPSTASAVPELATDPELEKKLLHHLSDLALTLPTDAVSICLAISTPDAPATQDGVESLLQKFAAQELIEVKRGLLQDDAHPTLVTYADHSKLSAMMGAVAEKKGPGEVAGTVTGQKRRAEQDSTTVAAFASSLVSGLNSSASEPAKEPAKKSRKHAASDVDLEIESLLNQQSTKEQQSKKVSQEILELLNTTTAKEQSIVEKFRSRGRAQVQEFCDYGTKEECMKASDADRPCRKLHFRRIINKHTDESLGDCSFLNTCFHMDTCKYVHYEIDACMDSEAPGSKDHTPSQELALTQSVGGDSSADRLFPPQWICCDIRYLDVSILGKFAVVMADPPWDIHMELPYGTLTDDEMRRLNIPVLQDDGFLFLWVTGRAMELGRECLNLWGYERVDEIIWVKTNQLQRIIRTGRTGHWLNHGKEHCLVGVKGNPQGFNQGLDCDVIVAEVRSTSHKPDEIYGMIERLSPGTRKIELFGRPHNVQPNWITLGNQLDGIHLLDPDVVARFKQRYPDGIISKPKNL

In general, IC50 refers to the midpoint of a concentration-inhibition curve. For `Cc1ncsc1-c1ccc(CNC(=O)[C@@H]2C[C@@H](O)CN2C(=O)[C@@H](NC(=O)CCc2ccc(-c3ccc(COc4cncc(C(=O)NCc5ccc6cc(CN7CCC(C)(C)CC7)[nH]c6c5)c4)cc3)cc2)C(C)(C)C)cc1` [compound 41], the “METTL3 degradation on co-treatment with VH032” value in [1] (MOLM-13, VH032 10 μM) is “suppressed METTL3 degradation”. Moreover, the “METTL3 degradation on co-treatment with bortezomib” value in test [1] (MOLM-13, bortezomib 1 μM) is listed as “suppressed METTL3 degradation”. Besides, the “METTL14 protein level relative to DMSO (transient increase)” value in [2] (2 μM, after 1 h, MOLM-13) is recorded as roughly 150%. The “METTL14 degradation (Western blot)” value in test [2] (MOLM-13, 1 μM, 16 h) is reported as “significant degradation”. Moreover, in test [3], the “effect on Bcl-2 protein level” value is recorded as “time-dependent reduction” and the “t1/2 of Bcl-2 protein level decrease” value is given as 18 h. Further, in test [4], the “effect on Mcl-1 protein level” value is “time-dependent reduction”. Also, the “effect on Bcl-XL protein level” value in test [5] is reported as “but not Bcl-XL”. For the same compound, in test [6], the IC50 came out at 450 nM. The “METTL3 mRNA level (ΔΔCt)” value in test [7] is “no significant changes”. Also, the “METTL14 mRNA level (ΔΔCt)” value in test [8] is given as “no significant changes”. The “global m^6A level reduction in mRNA” value in test [9] is “more pronounced m^6A reduction”. Further, the “time to apoptosis induction” value in test [10] was “approximately 10 h”. Moreover, in [11], the “maximum ZIP synergy score” value turned out to be 28.87 and the “mean ZIP synergy score” value amounted to 3.38.
